From patent publication US20150191445A1, “ACYL-HYDRAZONE AND OXADIAZOLE COMPOUNDS, PHARMACEUTICAL COMPOSITIONS CONTAINING THE SAME AND USES THEREOF” (Universidade Federal de Santa Catarina, priority 2011, published 2015)
“Also recorded” adds a separate entry of the source.

Columns and labels:
[1] = system: human leukemic Jurkat cells and HEK; assay: Screening of compounds by cell viability assay (MTT) in leukemic cells; type: cell-based; details: leukemic cells of Jurkat and HEK strains
Protocol: RPMI-1640 medium with 10% FBS (fetal bovine serum), 100 IU/mL penicillin, 100 µg/mL streptomycin and incubated at 37° C. and 5% CO2. Cytotoxicity assays were performed according to the method described in the literature (Pieters, R.; et al. In vitro drug sensitivity of cells from children with leukemia using the MTT assay with improved culture conditions. Blood, 1990, 76, 2327-2336; Pieters, R.; et al. Relation of cellular drug resistance to long-term clinical outcome in childhood acute lymphoblastic leukaemia. Lancet, 1991, 338, 399-403 e Kaspers, G. J.; et al. In vitro cellular drug resistance and prognosis in newly diagnosed childhood acute lymphoblastic leukemia. Blood, 1997, 90, 2723). Cells were resuspended at a concentration of 3.75 10^5 cells/mL in culture medium as described. Eighty microliters of this suspension were seeded into plates with 96 round-bottom wells, containing 20 microliters of different concentrations of compound or vehicle alone. Each treatment was done in triplicate. […] After incubating overnight, absorbance reading at 570 nm was carried out. The percentage of cells surviving the treatment were calculated relative to the number of surviving cells in the medium without addition of the compounds in question (“negative control”). […]

[2] = system: cell cycle regulatory proteins in Jurkat cells; assay: Western blot of cell cycle regulatory proteins; type: cell-based, human; details: 125 nM
Protocol: The cells were incubated for 12 hours in fresh medium before experiments. Two million cells from the Jurkat line were incubated for 12 h, 18 h, 24 h and 30 h in RPMI-640 medium supplemented with 10% Fetal Bovine Serum (FCS) and 0.2% Penicillin/Streptomycin (PS) with a concentration of 125 nM of compound 07 or DMSO (vehicle).
The cells treated or not with compound 07 were lysed in buffer containing 50 mM Tris pH 7.7, 150 mM NaCl, 5 mM EDTA, 1% Sigma phosphatase inhibitor cocktail I, 1% Sigma phosphatase inhibitor cocktail II, 1% Sigma protease inhibitor cocktail II, 1% Igepal, 0.1% SDS, 0.5% sodium deoxycholate and 1 mM PMSF. After incubation for 30 min on ice and 3 cycles of freezing and thawing, extracts were centrifuged at 10,000 rpm for 20 min at 4° C. to sediment membrane debris. Of the supernatant, we proceeded with protein quantification by Bradford reagent (Biorad). The samples were boiled for 5 min with prior addition of β-mercaptoethanol and 100 μg of protein were subjected to acrylamide:bisacrylamide gel electrophoresis (39:1) 10% with SDS and electrotransferred to 0.45 μm nitrocellulose membrane (Schleicher & Schuell). […]

[3] = target: Trypanosoma cruzi cruzain (Trypanosoma cruzi, UniProt P25779); details: cited from earlier work
Jurkat cells = assay: MTT cytotoxicity assay, Jurkat cell line; type: cell-based, human; details: 48 h of treatment, read-out: IC50 T (Jurkat)
Protocol: (§1) All compounds were resuspended in DMSO at stock concentration of 20 mM and stored at −20° C. For cytotoxicity testing, the dilutions from the stock solutions were made in culture medium (RPMI-1640 plus 10% of fetal bovine serum, 100 IU/ml penicillin and 100 µg/mL Streptomycin), immediately before being discharged to the cells.
(§2) The REH and Jurkat cell lines were maintained in
(§3) RPMI-1640 medium with 10% FBS (fetal bovine serum), 100 IU/mL penicillin, 100 µg/mL streptomycin and incubated at 37° C. and 5% CO2. Cytotoxicity assays were performed according to the method described in the literature (Pieters, R.; et al. In vitro drug sensitivity of cells from children with leukemia using the MTT assay with improved culture conditions. Blood, 1990, 76, 2327-2336; Pieters, R.; et al. Relation of cellular drug resistance to long-term clinical outcome in childhood acute lymphoblastic leukaemia. Lancet, 1991, 338, 399-403 e Kaspers, G. J.; et al. In vitro cellular drug resistance and prognosis in newly diagnosed childhood acute lymphoblastic leukemia. Blood, 1997, 90, 2723). Cells were resuspended at a concentration of 3.75 10^5 cells/mL in culture medium as described. Eighty microliters of this suspension were seeded into plates with 96 round-bottom wells, containing 20 microliters of different concentrations of compound or vehicle alone. Each treatment was done in triplicate. After 48 hours of incubation at 37° C. and 5% CO2, 20 μL of MTT solution was added (5 mg/mL of 1x PBS), followed by further incubation for 4 hours and 30 minutes at 37° C. and 5% CO2. During these 4 hours and 30 minutes, MTT (yellowish) is metabolized to formazan salt (bluish in color) by living cells. After this, 100 μL sodium dodecyl sulphate (SDS) 10%+0.1M of HCl were added to dissolve the formazan crystals. After incubating overnight, absorbance reading at 570 nm was carried out. The percentage of cells surviving the treatment were calculated relative to the number of surviving cells in the medium without addition of the compounds in question (“negative control”).
(§4) c) Determination of IC: IC50 is defined as the concentration of a compound at which 50% of maximal inhibition is obtained. After reading the absorbance, survival curves were constructed and the values of IC50 were obtained with the GraphPad Prism software.

[4] = system: Bone marrow cells from healthy donors; assay: Colony formation assay of hematopoietic cells; type: cell-based, human; details: for Colony formation BFU-E / Colony formation CFU-E / Colony formation CFU-G / Colony formation CFU-GEMM / Colony formation CFU-GM / Colony formation CFU-M: two weeks of culture
Protocol: Cytotoxicity of compound 07 was also evaluated with a colony formation assay of hematopoietic cells. A “HSC-CFU complete with Epo” kit from Miltenyi (Cat #130-091-280) was used following the manufacturer's recommendations. Bone marrow cells from healthy donors were cultured in semi-solid methylcellulose medium supplemented with bovine fetal serum, bovine serum albumin, different growth factors (GM-CSF, G-CSF, SCF, IL-3, IL-6, Epo) and compound 07, whose action on hematopoiesis was evaluated. After two weeks of culture at 37° C. and 5% CO2, an assessment of the number of granulocytes (CFU-G), macrophage (CFU-M), granulocyte/macrophage (CFU-GM), erythroid (BFU-E and CFU-E) and mixed (CFU-GEMM) colonies was carried out.

REH cells = assay: MTT cytotoxicity assay, REH cell line; type: cell-based, human; details: 48 h of treatment
Protocol: as §1, §2, §3, §4

Trypanosoma cruzi cruzain, sequence (P25779 123-467): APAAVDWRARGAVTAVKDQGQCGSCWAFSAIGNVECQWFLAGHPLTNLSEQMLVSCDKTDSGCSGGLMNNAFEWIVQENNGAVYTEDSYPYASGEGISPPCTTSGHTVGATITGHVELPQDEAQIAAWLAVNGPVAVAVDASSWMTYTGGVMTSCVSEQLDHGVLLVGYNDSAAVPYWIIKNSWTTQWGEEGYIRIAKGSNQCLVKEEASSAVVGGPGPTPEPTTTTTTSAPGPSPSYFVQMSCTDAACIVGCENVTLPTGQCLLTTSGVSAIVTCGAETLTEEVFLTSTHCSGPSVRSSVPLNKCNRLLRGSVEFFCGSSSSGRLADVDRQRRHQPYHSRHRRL

For COc1cc(C(=O)NN=Cc2cccc3ccccc23)cc(OC)c1OC [Compound 07], the antileukemic activity [1] was “excellent antileukemic activity; also recorded: significant antileukemic activity”, the “expression of CDKs” value [2] was “repression of the expression of CDK4 and to a lesser extent also of CDK6, shorter isoform of CDK2 and larger isoform of CDK9” and the “phosphorylation of Chk2” value ([2]; after 12 hours of treatment) was “possible to detect the phosphorylation of Chk2 in Thr68”. For the same compound, the “inhibitory activity of cruzain” value [3] was “did not show inhibitory activity”, the IC50 (Jurkat cells) was 15.7 nM and the “Colony formation BFU-E” value ([4]; 2 nM) was 39%. For the same compound, the “Colony formation CFU-E” value ([4]; 2 nM) was 23%, the “Colony formation CFU-G” value ([4]; 2 nM) was 11% and the “Colony formation CFU-GEMM” value ([4]; 2 nM) was 1%. The “Colony formation CFU-GM” value ([4]; 2 nM) was 52%, the “Colony formation CFU-M” value ([4]; 2 nM) was 17% and the “effect on erythrocyte formation” value ([4]; 20 nM) was “inhibitory activity on erythrocyte formation comparable to a PI3K inhibitor”. For the same compound, the “effect on granulocytes and macrophages” value ([4]; 20 nM) was “inhibitory activity against granulocytes and macrophages, although low in intensity when compared to a F13K inhibitor”, the “Colony formation BFU-E” value ([4]; 20 nM) was 26% and the “Colony formation CFU-E” value ([4]; 20 nM) was 11%. The “Colony formation CFU-G” value ([4]; 20 nM) was 14%, the “Colony formation CFU-GEMM” value ([4]; 20 nM) was 2% and the “Colony formation CFU-GM” value ([4]; 20 nM) was 27%. For the same compound, the “Colony formation CFU-M” value ([4]; 20 nM) was 25%, the effect on hematopoiesis ([4]; 200 nM) was “completely inhibited hematopoiesis” and the “Colony formation BFU-E” value ([4]; 200 nM) was 0%. For the same compound, the “Colony formation CFU-E” value ([4]; 200 nM) was 0%, the “Colony formation CFU-G” value ([4]; 200 nM) was 0% and the “Colony formation CFU-GEMM” value ([4]; 200 nM) was 0%. The “Colony formation CFU-GM” value ([4]; 200 nM) was 0%, the “Colony formation CFU-M” value ([4]; 200 nM) was 0% and the IC50 (REH cells) was 25.4 nM.
